# Data: PMC5406460 (Frontiers in Microbiology, 2017)
# Non-standard residues stand in square brackets, D forms with d. Residues, ends and D or L forms follow the SMILES beside them. ξ: configuration not given here. *: point of attachment. ξF = NC(Cc1ccccc1)C(=O)O; Cbz = O=C(OCc1ccccc1)*; CH2Cl = ClC*
# Experiments:
# M. tuberculosis H37Rv [1] = experiment: Minimum bactericidal concentration (MBC99) by CFU enumeration; type: cell-based; conditions: for MBC: Mycobacterium tuberculosis, H37RV, 120 h, concentration killing 99% of bacteria (100-fold kill), 5 days treatment
# bacterial proteasome = bacterial proteasome (Mycobacterium bovis, UniProt A1KKF3); experiment: cell-based; parameters: species or system M. bovis BCG
# M. tuberculosis H37Rv [2] = experiment: Turbidity-based growth inhibition (MIC50), M. tuberculosis H37Rv; type: cell-based; conditions: Mycobacterium tuberculosis, 120 h, 50% growth inhibition, 5 days, OD600
# M. bovis BCG = experiment: organism not typed; type: cell-based; conditions: 120 h, read-out: M. bovis MIC50
# ClpP1P2 = ClpP1P2 (Mycobacterium bovis, UniProt P0A527+P63784); experiment: cell-based; type: cell-based, M. bovis BCG; conditions: for IC50: 24 h, read-out: Bacterial Clp IC50
# human proteasome = human proteasome (Homo sapiens, UniProt P28074); experiment: cell-based
# in vitro = conditions: human
# Chain of bacterial proteasome (A1KKF3 whole entry, looked up): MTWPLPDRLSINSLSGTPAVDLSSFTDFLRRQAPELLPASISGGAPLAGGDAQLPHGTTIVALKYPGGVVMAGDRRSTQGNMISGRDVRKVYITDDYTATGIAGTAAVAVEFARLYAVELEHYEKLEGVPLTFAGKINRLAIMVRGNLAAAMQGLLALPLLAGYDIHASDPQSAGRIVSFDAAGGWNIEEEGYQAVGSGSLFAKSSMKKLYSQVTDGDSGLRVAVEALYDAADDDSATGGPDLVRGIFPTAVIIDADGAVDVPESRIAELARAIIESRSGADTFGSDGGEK
SMILES,MBC (M. tuberculosis H37Rv [1]) [µM],IC50 (bacterial proteasome) [µM],MIC50 (M. tuberculosis H37Rv [2]) [µM],MIC50 (M. bovis BCG) [µM],IC50 (ClpP1P2) [µM],IC50 (human proteasome) [µM],reduction in bactericidal potency against M. tuberculosis (M. tuberculosis H37Rv [1]; compared to Bortezomib (MBC99)),selectivity ratio (in vitro),loss of potency against ClpP1P2 compared to Bortezomib (ClpP1P2; 25 vs. 1.6 μM) [fold]
"CC(C)C[C@H](NC(=O)[C@H](Cc1ccccc1)NC(=O)c1cnccn1)B(O)O [Pyr-FL-BA, Pyrazine-Phenylalanine-Leucine-Boronic acid]",50,0.8,4,0.8,1.6,–,–,–,–
"CC(C)C[C@H](NC(=O)[C@H](Cc1ccccc1)NC(=O)c1cnccn1)C(=O)CCl [Pyr-FL-CMK, N-((S)-1-(((S)-1-chloro-5-methyl-2-oxohexan-3-yl)amino)-1-oxo-3-phenylpropan-2-yl)pyrazine-2-carboxamide]",100,25,25,20,25,> 500,two-fold,≥ 20,~15
"O=C(CNC(=O)OCc1ccccc1)NCC(=O)NC(Cc1ccccc1)C(=O)CCl (stereo not drawn) [Z-GGF-CMK, Carboxybenzyl-glycine-glycine-phenylalanine-CMK] (Cbz-Gly-Gly-[ξF]-CH2Cl)",–,50,30,30,50,> 500,–,–,–
"CC(C)C[C@H](NC(=O)CNC(=O)OCc1ccccc1)C(=O)NC(Cc1ccccc1)C(=O)CCl (stereo partly drawn) [Z-GLF-CMK, Carboxybenzyl-glycine-leucine-phenylalanine-CMK] (Cbz-Gly-Leu-[ξF]-CH2Cl)",200,35,20,20,25,> 500,–,–,–
